# Measurements published in publication PMC3469757 (Journal of medicinal chemistry, 2012).
# Target: T1, human TRPV1 (Homo sapiens, UniProt Q8NER1)
# Assay: Capsaicin assay
# Type: cell-based
# Settings: hTRPV1 in CHO cells
# T1 sequence (Q8NER1 whole entry): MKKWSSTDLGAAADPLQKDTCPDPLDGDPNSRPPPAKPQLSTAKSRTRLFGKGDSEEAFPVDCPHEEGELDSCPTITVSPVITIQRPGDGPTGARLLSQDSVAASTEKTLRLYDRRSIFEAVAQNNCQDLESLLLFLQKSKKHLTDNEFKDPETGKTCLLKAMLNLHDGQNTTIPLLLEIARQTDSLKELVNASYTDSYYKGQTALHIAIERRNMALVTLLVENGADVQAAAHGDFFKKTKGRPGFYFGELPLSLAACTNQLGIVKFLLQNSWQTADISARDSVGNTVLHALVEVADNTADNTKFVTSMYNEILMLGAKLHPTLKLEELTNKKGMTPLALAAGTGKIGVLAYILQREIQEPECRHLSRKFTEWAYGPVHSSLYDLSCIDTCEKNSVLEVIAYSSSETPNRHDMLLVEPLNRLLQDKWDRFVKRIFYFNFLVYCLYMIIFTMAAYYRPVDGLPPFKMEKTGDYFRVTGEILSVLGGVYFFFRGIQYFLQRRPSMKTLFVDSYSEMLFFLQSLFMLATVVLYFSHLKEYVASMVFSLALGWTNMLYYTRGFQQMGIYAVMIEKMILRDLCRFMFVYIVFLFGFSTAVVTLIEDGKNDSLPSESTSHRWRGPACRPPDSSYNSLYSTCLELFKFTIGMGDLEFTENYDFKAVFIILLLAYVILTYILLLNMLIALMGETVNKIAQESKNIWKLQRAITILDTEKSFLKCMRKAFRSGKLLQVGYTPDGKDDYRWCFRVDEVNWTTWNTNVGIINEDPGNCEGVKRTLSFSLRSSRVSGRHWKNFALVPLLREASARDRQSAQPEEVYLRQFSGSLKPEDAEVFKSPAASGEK
row,hTRPV1 antagonism in words,Compound
1,devoid of activity,"CC(C(=O)NCc1ccc(C(F)(F)F)nc1Nc1ccc(Cl)cc1)c1ccc(NS(C)(=O)=O)c(F)c1 (stereo not shown) [Compound 19, N-((2-((4-Chlorophenyl)amino)-6-(trifluoromethyl)pyridin-3-yl)methyl)-2-(3-fluoro-4-(methylsulfonamido)phenyl)propanamide]"
2,weak antagonist,"CC(C(=O)NCc1ccc(C(F)(F)F)nc1)c1ccc(NS(C)(=O)=O)c(F)c1 (stereo not shown) [Compound 12, 2-(3-Fluoro-4-(methylsulfonamido)phenyl)-N-((6-(trifluoromethyl)pyridin-3-yl)methyl)propanamide]"
3,only weak potency,"CC(C(=O)NCc1ccc(C(F)(F)F)nc1N1CCS(=O)(=O)CC1)c1ccc(NS(C)(=O)=O)c(F)c1 (stereo not shown) [Compound 99, N-((2-(1,1-Dioxidothiomorpholino)-6-(trifluoromethyl)pyridin-3-yl)methyl)-2-(3-fluoro-4-(methylsulfonamido)phenyl)propanamide]"
4,weak antagonist,"CC(C(=O)NCc1ccc(C(F)(F)F)nc1N1CCNCC1)c1ccc(NS(C)(=O)=O)c(F)c1 (stereo not shown) [Compound 81, 2-(3-Fluoro-4-(methylsulfonamido)phenyl)-N-((2-(piperazin-1-yl)-6-(trifluoromethyl)pyridin-3-yl)methyl)propanamide]"

# Same assay, conditions: hTRPV1 in CHO cells, versus compound 2
row,fold more potent than parent 2 for capsaicin antagonism [fold],Compound
1,15,"CC(C(=O)NCc1ccc(C(F)(F)F)nc1N1CCOCC1)c1ccc(NS(C)(=O)=O)c(F)c1 (stereo not shown) [Compound 97, 2-(3-Fluoro-4-(methylsulfonamido)phenyl)-N-((2-morpholino-6-(trifluoromethyl)pyridin-3-yl)methyl)propanamide]"
2,46,"CC(C(=O)NCc1ccc(C(F)(F)F)nc1N1CCCCC1)c1ccc(NS(C)(=O)=O)c(F)c1 (stereo not shown) [Compound 45, 2-(3-Fluoro-4-(methylsulfonamido)phenyl)-N-((2-(piperidin-1-yl)-6-(trifluoromethyl)pyridin-3-yl)methyl)propanamide]"

# Same assay, conditions: hTRPV1 in CHO cells, versus compound 3
row,fold more potent than lead 3 for capsaicin antagonism,Compound
1,ca. 15 fold,"C[C@H](C(=O)NCc1ccc(C(F)(F)F)nc1N1CCCCC1)c1ccc(NS(C)(=O)=O)c(F)c1 [Compound 45S, (S)-2-(3-Fluoro-4-(methylsulfonamido)phenyl)-N-((2-(piperidin-1-yl)-6-(trifluoromethyl)pyridin-3-yl)methyl)propanamide]"

# Same assay, conditions: versus compound 17
row,fold increase in potency for CAP compared to phenylamino analogue 17 [fold],Compound
1,75,"CC(C(=O)NCc1ccc(C(F)(F)F)nc1N(C)c1ccccc1)c1ccc(NS(C)(=O)=O)c(F)c1 (stereo not shown) [Compound 32, 2-(3-Fluoro-4-(methylsulfonamido)phenyl)-N-((2-(methyl(phenyl)amino)-6-(trifluoromethyl)pyridin-3-yl)methyl)propanamide]"

# Target: T1, human TRPV1
# Assay: pH assay
# Type: cell-based
# Settings: read-out: IC50 [pH]; hTRPV1 in CHO cells, activator pH 6.0 to 6.3
row,IC50 [µM],Compound
1,> 10,"CC(C(=O)NCc1ccc(C(F)(F)F)nc1)c1ccc(NS(C)(=O)=O)c(F)c1 (stereo not shown) [Compound 12, 2-(3-Fluoro-4-(methylsulfonamido)phenyl)-N-((6-(trifluoromethyl)pyridin-3-yl)methyl)propanamide]"
2,> 10,"CC(C(=O)NCc1ccc(C(F)(F)F)nc1N1CCN(c2ccncc2)CC1)c1ccc(NS(C)(=O)=O)c(F)c1 (stereo not shown) [Compound 92, 2-(3-Fluoro-4-(methylsulfonamido)phenyl)-N-((2-(4-(pyridin-4-yl)piperazin-1-yl)-6-(trifluoromethyl)pyridin-3-yl)methyl)propanamide]"
3,> 10,"CC(C(=O)NCc1ccc(C(F)(F)F)nc1N1CCC(=O)CC1)c1ccc(NS(C)(=O)=O)c(F)c1 (stereo not shown) [Compound 64, 2-(3-Fluoro-4-(methylsulfonamido)phenyl)-N-((2-(4-oxopiperidin-1-yl)-6-(trifluoromethyl)pyridin-3-yl)methyl)propanamide]"
4,> 10,"CC(C(=O)NCc1ccc(C(F)(F)F)nc1N1CCCCC1C)c1ccc(NS(C)(=O)=O)c(F)c1 (stereo not shown) [Compound 47, 2-(3-Fluoro-4-(methylsulfonamido)phenyl)-N-((2-(2-methylpiperidin-1-yl)-6-(trifluoromethyl)pyridin-3-yl)methyl)propanamide]"
5,> 10,"CC(C(=O)NCc1ccc(C(F)(F)F)nc1N1CCN(C2CCCCC2)CC1)c1ccc(NS(C)(=O)=O)c(F)c1 (stereo not shown) [Compound 83, N-((2-(4-Cyclohexylpiperazin-1-yl)-6-(trifluoromethyl)pyridin-3-yl)methyl)-2-(3-fluoro-4-(methylsulfonamido)phenyl)propanamide]"
6,> 10,"CC(C(=O)NCc1ccc(C(F)(F)F)nc1N1CCC(O)CC1)c1ccc(NS(C)(=O)=O)c(F)c1 (stereo not shown) [Compound 65, 2-(3-Fluoro-4-(methylsulfonamido)phenyl)-N-((2-(4-hydroxypiperidin-1-yl)-6-(trifluoromethyl)pyridin-3-yl)methyl)propanamide]"
7,> 10,"C[C@H](C(=O)NCc1ccc(C(F)(F)F)nc1N1CCC[C@H]1C(=O)N(C)C)c1ccc(NS(C)(=O)=O)c(F)c1 [Compound 36, (S)-1-(3-(((S)-2-(3-Fluoro-4-(methylsulfonamido)phenyl)propanamido)methyl)-6-(trifluoromethyl)pyridin-2-yl)-N,N-dimethylpyrrolidine-2-carboxamide]"
8,> 10,"CC(C(=O)NCc1ccc(C(F)(F)F)nc1NCc1ccncc1)c1ccc(NS(C)(=O)=O)c(F)c1 (stereo not shown) [Compound 26, 2-(3-Fluoro-4-(methylsulfonamido)phenyl)-N-((2-((pyridin-4-ylmethyl)amino)-6-(trifluoromethyl)pyridin-3-yl)methyl)propanamide]"
9,> 10,"CC(C(=O)NCc1ccc(C(F)(F)F)nc1Nc1ccc(F)cc1)c1ccc(NS(C)(=O)=O)c(F)c1 (stereo not shown) [Compound 18, 2-(3-Fluoro-4-(methylsulfonamido)phenyl)-N-((2-((4-fluorophenyl)amino)-6-(trifluoromethyl)pyridin-3-yl)methyl)propanamide]"
10,> 10,"CC(C(=O)NCc1ccc(C(F)(F)F)nc1N1CCN(C)CC1)c1ccc(NS(C)(=O)=O)c(F)c1 (stereo not shown) [Compound 82, 2-(3-Fluoro-4-(methylsulfonamido)phenyl)-N-((2-(4-methylpiperazin-1-yl)-6-(trifluoromethyl)pyridin-3-yl)methyl)propanamide]"
11,> 10,"C[C@H](C(=O)NCc1ccc(C(F)(F)F)nc1N1CC[C@@H](O)C1)c1ccc(NS(C)(=O)=O)c(F)c1 [Compound 38, (S)-2-(3-Fluoro-4-(methylsulfonamido)phenyl)-N-((2-((R)-3-hydroxypyrrolidin-1-yl)-6-(trifluoromethyl)pyridin-3-yl)methyl)propanamide]"
12,> 10,"C[C@H](C(=O)NCc1ccc(C(F)(F)F)nc1N1CCC[C@H]1CO)c1ccc(NS(C)(=O)=O)c(F)c1 [Compound 35, (S)-2-(3-Fluoro-4-(methylsulfonamido)phenyl)-N-((2-((S)-2-(hydroxymethyl)pyrrolidin-1-yl)-6-(trifluoromethyl)pyridin-3-yl)methyl)propanamide]"
13,> 10,"CC(C(=O)NCc1ccc(C(F)(F)F)nc1N1CCC(N2CCCCC2)CC1)c1ccc(NS(C)(=O)=O)c(F)c1 (stereo not shown) [Compound 75, N-((2-([1,4'-Bipiperidin]-1'-yl)-6-(trifluoromethyl)pyridin-3-yl)methyl)-2-(3-fluoro-4-(methylsulfonamido)phenyl)propanamide]"
14,> 10,"O=C(/C=C/c1ccc(C(F)(F)F)nc1N1CCCCC1)Nc1ccc2cccnc2c1 [Compound 3, reference compound]"
15,> 10,"CC(C)(C)c1ccc(CNC(=S)NCc2ccc(NS(C)(=O)=O)c(F)c2)cc1 [Compound 1, reference compound]"
16,> 10,"CC(C(=O)NCc1ccc(C(F)(F)F)nc1N1CCN(c2ncccc2C(F)(F)F)CC1)c1ccc(NS(C)(=O)=O)c(F)c1 (stereo not shown) [Compound 95, 2-(3-Fluoro-4-(methylsulfonamido)phenyl)-N-((6-(trifluoromethyl)-2-(4-(3-(trifluoromethyl)pyridin-2-yl)piperazin-1-yl)pyridin-3-yl)methyl)propanamide]"
17,> 10,"CC(C(=O)NCc1ccc(C(F)(F)F)nc1NCc1ccccn1)c1ccc(NS(C)(=O)=O)c(F)c1 (stereo not shown) [Compound 24, 2-(3-Fluoro-4-(methylsulfonamido)phenyl)-N-((2-((pyridin-2-ylmethyl)amino)-6-(trifluoromethyl)pyridin-3-yl)methyl)propanamide]"
18,> 10,"CC1CCCN1c1nc(C(F)(F)F)ccc1CNC(=O)[C@@H](C)c1ccc(NS(C)(=O)=O)c(F)c1 (stereo partly drawn) [Compound 34, (2S)-2-(3-Fluoro-4-(methylsulfonamido)phenyl)-N-((2-(2-methylpyrrolidin-1-yl)-6-(trifluoromethyl)pyridin-3-yl)methyl)propanamide]"
19,> 10,"CC1CCCN(c2nc(C(F)(F)F)ccc2CNC(=O)C(C)c2ccc(NS(C)(=O)=O)c(F)c2)C1 (stereo not shown) [Compound 48, 2-(3-Fluoro-4-(methylsulfonamido)phenyl)-N-((2-(3-methylpiperidin-1-yl)-6-(trifluoromethyl)pyridin-3-yl)methyl)propanamide]"
20,> 10,"CC(C(=O)NCc1ccc(C(F)(F)F)nc1N1CCS(=O)(=O)CC1)c1ccc(NS(C)(=O)=O)c(F)c1 (stereo not shown) [Compound 99, N-((2-(1,1-Dioxidothiomorpholino)-6-(trifluoromethyl)pyridin-3-yl)methyl)-2-(3-fluoro-4-(methylsulfonamido)phenyl)propanamide]"
21,> 10,"CC(C(=O)NCc1ccc(C(F)(F)F)nc1NCc1cccnc1)c1ccc(NS(C)(=O)=O)c(F)c1 (stereo not shown) [Compound 25, 2-(3-Fluoro-4-(methylsulfonamido)phenyl)-N-((2-((pyridin-3-ylmethyl)amino)-6-(trifluoromethyl)pyridin-3-yl)methyl)propanamide]"
22,> 10,"CC(C(=O)NCc1ccc(C(F)(F)F)nc1N1CCC(N2CCCC2)CC1)c1ccc(NS(C)(=O)=O)c(F)c1 (stereo not shown) [Compound 76, 2-(3-Fluoro-4-(methylsulfonamido)phenyl)-N-((2-(4-(pyrrolidin-1-yl)piperidin-1-yl)-6-(trifluoromethyl)pyridin-3-yl)methyl)propanamide]"
23,> 10,"CC(C(=O)NCc1ccc(C(F)(F)F)nc1N1CCNCC1)c1ccc(NS(C)(=O)=O)c(F)c1 (stereo not shown) [Compound 81, 2-(3-Fluoro-4-(methylsulfonamido)phenyl)-N-((2-(piperazin-1-yl)-6-(trifluoromethyl)pyridin-3-yl)methyl)propanamide]"
24,> 10,"CC(C)OC1CCN(c2nc(C(F)(F)F)ccc2CNC(=O)C(C)c2ccc(NS(C)(=O)=O)c(F)c2)CC1 (stereo not shown) [Compound 70, 2-(3-Fluoro-4-(methylsulfonamido)phenyl)-N-((2-(4-isopropoxypiperidin-1-yl)-6-(trifluoromethyl)pyridin-3-yl)methyl)propanamide]"

# Same assay, conditions: versus compound 17
row,fold increase in potency for pH compared to phenylamino analogue 17 [fold],Compound
1,25,"CC(C(=O)NCc1ccc(C(F)(F)F)nc1N(C)c1ccccc1)c1ccc(NS(C)(=O)=O)c(F)c1 (stereo not shown) [Compound 32, 2-(3-Fluoro-4-(methylsulfonamido)phenyl)-N-((2-(methyl(phenyl)amino)-6-(trifluoromethyl)pyridin-3-yl)methyl)propanamide]"

# Tested on: male NMRI mice
# Assay: Capsaicin induced hypothermia in mice
# Type: in vivo, mouse
# Settings: 3 mg/kg intraperitoneal, 15 min post injection, from 37.1 ± 0.1 °C
row,Compound,body temperature after capsaicin injection [°C]
1,"COc1cc(CNC(=O)CCCC/C=C/C(C)C)ccc1O [capsaicin, reference compound]",34.0 ± 0.1
